Experimental data from patent US10988523B2, “Modified lipidated Relaxin B chain peptides and their therapeutic use” (Sanofi, priority 2018, dated 2021).
*1 amine or outer side, *2 acyl side, *3 side chain or, on linkers, in order; H or OH if unused. Where a SMILES comes first, the peptide text is derived from it. Side-chain parts run from the residue outwards. [ ]: non-standard residue; d: D form. The star is where a group is joined. γGlu = O=C(O)[C@H](CCC(=O)[*:2])N[*:1]; 1Nal = N[C@@H](Cc1cccc2ccccc12)C(=O)O; Stearoyl = CCCCCCCCCCCCCCCCCC(=O)*; Nle = CCCC[C@H](N)C(=O)O; AEEA = NCCOCCOCC(=O)O; Aib = CC(C)(N)C(=O)O

Target: T1, RXFP1 (Homo sapiens, UniProt Q9HBX9)
T1 construct: OVCAR5 cells expressing endogenous RXFP1; endogenous in cells; host or cells: OVCAR5 cells
T1 sequence (Q9HBX9 1-757): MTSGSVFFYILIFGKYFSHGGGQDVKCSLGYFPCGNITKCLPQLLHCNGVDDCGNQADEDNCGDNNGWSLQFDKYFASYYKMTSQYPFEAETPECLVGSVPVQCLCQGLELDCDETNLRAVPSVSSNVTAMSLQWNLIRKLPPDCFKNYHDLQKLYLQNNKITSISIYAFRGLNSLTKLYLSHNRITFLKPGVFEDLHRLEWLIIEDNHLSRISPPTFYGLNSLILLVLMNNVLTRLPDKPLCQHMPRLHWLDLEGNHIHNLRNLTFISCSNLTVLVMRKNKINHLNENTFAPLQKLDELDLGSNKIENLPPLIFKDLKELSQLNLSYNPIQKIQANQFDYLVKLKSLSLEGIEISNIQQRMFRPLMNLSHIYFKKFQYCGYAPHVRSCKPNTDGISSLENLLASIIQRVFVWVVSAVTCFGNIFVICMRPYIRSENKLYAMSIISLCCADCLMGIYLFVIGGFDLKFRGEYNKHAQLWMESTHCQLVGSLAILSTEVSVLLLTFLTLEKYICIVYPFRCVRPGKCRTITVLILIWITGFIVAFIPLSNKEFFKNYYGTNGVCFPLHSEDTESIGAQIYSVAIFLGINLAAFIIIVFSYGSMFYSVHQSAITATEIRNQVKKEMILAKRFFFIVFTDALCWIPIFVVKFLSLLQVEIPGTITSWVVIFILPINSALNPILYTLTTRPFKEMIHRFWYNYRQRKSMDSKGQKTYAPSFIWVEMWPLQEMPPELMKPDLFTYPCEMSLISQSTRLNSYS
Experiment: OVCAR5 cAMP assay (HTRF), RXFP1 agonist activity
Assay type: cell-based
Conditions: for EC50: OVCAR5 cells, cAMP HTRF, read-out: EC50 (nM), OVCAR 5 cells (cAMP); for Emax: OVCAR-5, maximal cAMP relative to H2-relaxin maximum (100%), read-out: EMax, OVCAR 5 cells (cAMP)
Outline: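 OVCAR5 cells (endogenous RXFP1) pretreated 40 min at 37° C with 1 mM IBMX, then exposed to peptides in serum-free medium for 30 min at 37° C. Lysate cAMP read by HTRF; EC50 from variable-slope sigmoidal fit; Emax as % of H2-relaxin maximal cAMP in same run.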

| Compound | EC50 [nM] | Emax [%] |
| --- | --- | --- |
| CCCCCCCCCCCCCCCCCC(=O)N[C@@H](CCC(=O)N[C@@H](CCC(=O)N[C@@H](CCC(=O)NCCOCCOCC(=O)NCCOCCOCC(=O)NCCOCCOCC(=O)NCCCC[C@H](NC(=O)[C@H](CC(C)C)NC(=O)[C@H](CCCCN)NC(=O)[C@H](CCCNC(=N)N)NC(=O)C(C)(C)NC(=O)[C@H](CO)NC(=O)[C@H](Cc1c[nH]c2ccccc12)NC(=O)[C@@H](NC(=O)[C@H](CO)NC(=O)[C@H](CCCC)NC(=O)CNC(=O)[C@H](CCC(=O)O)NC(=O)C(C)(C)NC(=O)C(C)(C)NC(=O)[C@@H](NC(=O)[C@H](CCCCNC(C)=O)NC(=O)[C@H](C)NC(=O)[C@H](CCCNC(=N)N)NC(=O)[C@@H](NC(=O)[C@H](CCCCN)NC(=O)[C@H](CCC(=O)O)NC(=O)[C@H](CCCNC(=N)N)NC(=O)CNC(=O)[C@H](CCC(=O)O)NC(=O)[C@H](CC(C)C)NC(C)=O)C(C)C)[C@@H](C)CC)[C@@H](C)O)C(N)=O)C(=O)O)C(=O)O)C(=O)O [compound 86] (Ac-LEGREKVRAK(Ac)I[Aib][Aib]EG[Nle]STWS[Aib]RKLK([AEEA-AEEA-AEEA-γGlu-γGlu-γGlu-Stearoyl])-NH2) | 0.69 | 79 |
| CCCCCCCCCCCCCCCCCC(=O)N[C@@H](CCC(=O)N[C@@H](CCC(=O)N[C@@H](CCC(=O)NCCOCCOCC(=O)NCCOCCOCC(=O)NCCOCCOCC(=O)NCCCC[C@H](NC(=O)[C@H](CC(C)C)NC(=O)[C@H](CCCCN)NC(=O)[C@H](CCCNC(=N)N)NC(=O)C(C)(C)NC(=O)[C@H](CO)NC(=O)[C@H](Cc1cccc2ccccc12)NC(=O)[C@@H](NC(=O)[C@H](CO)NC(=O)[C@H](CCCC)NC(=O)CNC(=O)[C@H](CCC(=O)O)NC(=O)C(C)(C)NC(=O)C(C)(C)NC(=O)[C@@H](NC(=O)[C@H](CCCCNC(C)=O)NC(=O)[C@H](C)NC(=O)[C@H](CCCNC(=N)N)NC(=O)[C@@H](NC(=O)[C@H](CCCCN)NC(=O)[C@H](CCC(=O)O)NC(=O)[C@H](CCCNC(=N)N)NC(=O)CNC(=O)[C@H](CCC(=O)O)NC(=O)[C@H](CC(C)C)NC(C)=O)C(C)C)[C@@H](C)CC)[C@@H](C)O)C(N)=O)C(=O)O)C(=O)O)C(=O)O [compound 87] (Ac-LEGREKVRAK(Ac)I[Aib][Aib]EG[Nle]ST[1Nal]S[Aib]RKLK([AEEA-AEEA-AEEA-γGlu-γGlu-γGlu-Stearoyl])-NH2) |  | 71 |
| CCCCCCCCCCCCCCCCCC(=O)N[C@@H](CCC(=O)N[C@@H](CCC(=O)N[C@@H](CCC(=O)NCCOCCOCC(=O)NCCOCCOCC(=O)NCCOCCOCC(=O)NCCOCCOCC(=O)NCCCC[C@H](NC(=O)[C@H](CCCCN)NC(=O)[C@H](CCCCN)NC(=O)[C@H](CCCNC(=N)N)NC(=O)C(C)(C)NC(=O)[C@H](CO)NC(=O)[C@H](Cc1c[nH]c2ccccc12)NC(=O)[C@@H](NC(=O)[C@H](CO)NC(=O)[C@H](CCCC)NC(=O)CNC(=O)[C@H](CCC(=O)O)NC(=O)C(C)(C)NC(=O)C(C)(C)NC(=O)[C@@H](NC(=O)[C@H](CCC(N)=O)NC(=O)[C@H](C)NC(=O)[C@H](CCCNC(=N)N)NC(=O)[C@@H](NC(=O)[C@H](CCCCN)NC(=O)[C@H](CCC(=O)O)NC(=O)[C@H](CCCNC(=N)N)NC(=O)CNC(=O)[C@H](CCC(=O)O)NC(=O)[C@H](CC(C)C)NC(C)=O)C(C)C)[C@@H](C)CC)[C@@H](C)O)C(N)=O)C(=O)O)C(=O)O)C(=O)O [compound 92] (Ac-LEGREKVRAQI[Aib][Aib]EG[Nle]STWS[Aib]RKKK([AEEA-AEEA-AEEA-AEEA-γGlu-γGlu-γGlu-Stearoyl])-NH2) | 0.26 | 82 |
| CCCCCCCCCCCCCCCCCC(=O)N[C@@H](CCC(=O)N[C@@H](CCC(=O)N[C@@H](CCC(=O)NCCOCCOCC(=O)NCCOCCOCC(=O)NCCOCCOCC(=O)NCCOCCOCC(=O)NCCOCCOCC(=O)NCCCC[C@H](NC(=O)[C@H](CCCCN)NC(=O)[C@H](CCCCN)NC(=O)[C@H](CCCNC(=N)N)NC(=O)C(C)(C)NC(=O)[C@H](CO)NC(=O)[C@H](Cc1c[nH]c2ccccc12)NC(=O)[C@@H](NC(=O)[C@H](CO)NC(=O)[C@H](CCCC)NC(=O)CNC(=O)[C@H](CCC(=O)O)NC(=O)C(C)(C)NC(=O)C(C)(C)NC(=O)[C@@H](NC(=O)[C@H](CCC(N)=O)NC(=O)[C@H](C)NC(=O)[C@H](CCCNC(=N)N)NC(=O)[C@@H](NC(=O)[C@H](CCCCN)NC(=O)[C@H](CCC(=O)O)NC(=O)[C@H](CCCNC(=N)N)NC(=O)CNC(=O)[C@H](CCC(=O)O)NC(=O)[C@H](CC(C)C)NC(C)=O)C(C)C)[C@@H](C)CC)[C@@H](C)O)C(N)=O)C(=O)O)C(=O)O)C(=O)O [compound 93] (Ac-LEGREKVRAQI[Aib][Aib]EG[Nle]STWS[Aib]RKKK([AEEA-AEEA-AEEA-AEEA-AEEA-γGlu-γGlu-γGlu-Stearoyl])-NH2) | 0.14 | 87 |

Further molecules by falling EC50, results first:

| EC50 [nM] | Emax [%] | Compound |
| --- | --- | --- |
| 0.11 | 74 | CCCCCCCCCCCCCCCCCC(=O)N[C@@H](CCC(=O)N[C@@H](CCC(=O)N[C@@H](CCC(=O)N[C@@H](CCC(=O)NCCOCCOCC(=O)NCCOCCOCC(=O)NCCOCCOCC(=O)NCCCC[C@H](NC(=O)[C@H](CCCCN)NC(=O)[C@H](CCCCN)NC(=O)[C@H](CCCNC(=N)N)NC(=O)C(C)(C)NC(=O)[C@H](CO)NC(=O)[C@H](Cc1c[nH]c2ccccc12)NC(=O)[C@@H](NC(=O)[C@H](CO)NC(=O)[C@H](CCCC)NC(=O)CNC(=O)[C@H](CCC(=O)O)NC(=O)C(C)(C)NC(=O)C(C)(C)NC(=O)[C@@H](NC(=O)[C@H](CCC(N)=O)NC(=O)[C@H](C)NC(=O)[C@H](CCCNC(=N)N)NC(=O)[C@@H](NC(=O)[C@H](CCCCN)NC(=O)[C@H](CCC(=O)O)NC(=O)[C@H](CCCNC(=N)N)NC(=O)CNC(=O)[C@H](CCC(=O)O)NC(=O)[C@H](CC(C)C)NC(C)=O)C(C)C)[C@@H](C)CC)[C@@H](C)O)C(N)=O)C(=O)O)C(=O)O)C(=O)O)C(=O)O [compound 88] (Ac-LEGREKVRAQI[Aib][Aib]EG[Nle]STWS[Aib]RKKK([AEEA-AEEA-AEEA-γGlu-γGlu-γGlu-γGlu-Stearoyl])-NH2) |
| 0.07 | 89 | CCCCCCCCCCCCCCCCCC(=O)N[C@@H](CCC(=O)N[C@@H](CCC(=O)N[C@@H](CCC(=O)NCCOCCOCC(=O)NCCOCCOCC(=O)NCCOCCOCC(=O)NCCOCCOCC(=O)NCCCC[C@H](NC(=O)[C@H](CCCCNC(C)=O)NC(=O)[C@H](CCCCN)NC(=O)[C@H](CCCNC(=N)N)NC(=O)C(C)(C)NC(=O)[C@H](CO)NC(=O)[C@H](Cc1c[nH]c2ccccc12)NC(=O)[C@@H](NC(=O)[C@H](CO)NC(=O)[C@H](CCCC)NC(=O)CNC(=O)[C@H](CCC(=O)O)NC(=O)C(C)(C)NC(=O)C(C)(C)NC(=O)[C@@H](NC(=O)[C@H](CCCCNC(C)=O)NC(=O)[C@H](C)NC(=O)[C@H](CCCNC(=N)N)NC(=O)[C@@H](NC(=O)[C@H](CCCCN)NC(=O)[C@H](CCC(=O)O)NC(=O)[C@H](CCCNC(=N)N)NC(=O)CNC(=O)[C@H](CCC(=O)O)NC(=O)[C@H](CC(C)C)NC(C)=O)C(C)C)[C@@H](C)CC)[C@@H](C)O)C(N)=O)C(=O)O)C(=O)O)C(=O)O [compound 90] (Ac-LEGREKVRAK(Ac)I[Aib][Aib]EG[Nle]STWS[Aib]RKK(Ac)K([AEEA-AEEA-AEEA-AEEA-γGlu-γGlu-γGlu-Stearoyl])-NH2) |
| 0.03 | 79 | CCCCCCCCCCCCCCCCCC(=O)N[C@@H](CCC(=O)N[C@@H](CCC(=O)N[C@@H](CCC(=O)N[C@@H](CCC(=O)NCCOCCOCC(=O)NCCOCCOCC(=O)NCCOCCOCC(=O)NCCCC[C@H](NC(=O)[C@H](CCCCN)NC(=O)[C@H](CCCCN)NC(=O)[C@H](CCCNC(=N)N)NC(=O)C(C)(C)NC(=O)[C@H](CO)NC(=O)[C@H](Cc1c[nH]c2ccccc12)NC(=O)[C@@H](NC(=O)[C@H](CO)NC(=O)[C@H](CCCC)NC(=O)CNC(=O)[C@H](CCC(=O)O)NC(=O)C(C)(C)NC(=O)C(C)(C)NC(=O)[C@@H](NC(=O)[C@H](CCCCNC(C)=O)NC(=O)[C@H](C)NC(=O)[C@H](CCCNC(=N)N)NC(=O)[C@@H](NC(=O)[C@H](CCCCN)NC(=O)[C@H](CCC(=O)O)NC(=O)[C@H](CCCNC(=N)N)NC(=O)CNC(=O)[C@H](CCC(=O)O)NC(=O)[C@H](CC(C)C)NC(C)=O)C(C)C)[C@@H](C)CC)[C@@H](C)O)C(N)=O)C(=O)O)C(=O)O)C(=O)O)C(=O)O [compound 89] (Ac-LEGREKVRAK(Ac)I[Aib][Aib]EG[Nle]STWS[Aib]RKKK([AEEA-AEEA-AEEA-γGlu-γGlu-γGlu-γGlu-Stearoyl])-NH2) |
